Here are results for one substance from PMC6145916, “Interaction of mitochondrial fission factor with dynamin related protein 1 governs physiological mitochondrial function in vivo” (Scientific Reports, 2018).

The subject of assay [1] is SH-SY5Y cells. Description: Mitochondrial ROS (MitoSox Red), SH-SY5Y. Conditions: overnight treatment, normalized to no peptide; 3 independent experiments. In kind it is cell-based, human. How it is done:
(§1) Represented Western blot is cropped from a full blot shown in the Expanded Western Blots section of the Supplementary Information. […] Hoechst 33342 is shown in blue and Tom20 in green (n = 3, 10 images each). Below, quantification of the form factor (degree of branching) and major axis length (length of mitochondria). At least 6,000 mitochondrial fragments were measured for each condition. Mitochondrial reactive oxygen species (ROS) production (MitoSox Red) (c) and mitochondrial membrane potential (TMRM) (d) after overnight treatment with indicated concentrations of peptide or FCCP. Data are from 3 independent experiments per condition normalized to the average no peptide value. (e) Relative mitochondrial ROS (MitoSox Red) signal in GFP positive cells expressing full-length or alanine-substituted P259 at indicated amino acids after two days of transfection. Values are normalized to a GFP empty vector (n = 3, with 3 replicates). […] Data are mean ± s.e.
(§2) Following treatment, cells were washed with treatment media.
(§3) The Cy5 filter was used to autofocus on the mitochondria plane. […] MitoROS was calculated as the average MitoSox signal per cell. The mitochondrial membrane potential was calculated as the average TMRM signal in the mitochondrial mask. […]
(§4) calculated as the average MitoSox signal per cell. […]

Assay [2] has as its system wild-type MEFs. Description: Mitochondrial membrane potential (TMRM), WT MEFs. Format: cell-based, mouse. Conditions: 20 µM P259 overnight, vs no peptide; 3 independent experiments, three technical replicates; ** p <0.01. How it is done: (§5) Data are of 3 independent experiments with the whiskers calculated by the Turkey method. e. […]
(§6) determined by an unpaired, two -tailed t test). g. […]
control (no peptide treatment). Data are mean ± s.e. from 3 independent experiments. […]
(§7) and without phenol red. […] After incubation
(§8) HEPES, and without phenol red. […]
(§9) epifluorescence microscope with a 10X objective (Keyence). The Cy5 filter (Keyence) was used to autofocus on the mitochondria plane. […]
Mitochondrial membrane potential determination
After treatment, cells were washed with
Cells were incubated in a 37
°C incubator for 30 minutes. […]

Assay [3] deals with SH-SY5Y cells. The assay is described as follows: Mitochondrial membrane potential (TMRM), SH-SY5Y. In kind it is cell-based, human. Conditions: overnight treatment, normalized to no peptide; 3 independent experiments. The method, then:
as §1, §2, §3, §4

Assay [4] relates to wild-type mice. The assay is described as follows: ATP content in brain tissue. Format: in vivo, mouse. Conditions: 3 mg/Kg/day, subcutaneous osmotic pump, 8 weeks, WT mice; n = 4 mice, 2 replicates. From the text: (a) Quantification of mitochondrial Drp1 content relative to ALDH2 (a mitochondrial matrix enzyme) in the mitochondrial fraction isolated from total brain lysate of wild-type mice (Western blot shown in Fig. S3B) (n = 4 mice). (b) ATP content in brain tissue of wild-type mice (n = 4 mice, 2 replicates). (c) Representative transmission electron microscopy images of the striatum from wild-type mice. […] The first principal component represents 42% of the variation. (f) Local linear embedding dimensionality reduction and visualization of all behaviors collected weekly from TAT- (black) or P259- (purple) treated WT and TAT- (white) treated R6/2 mice over the course of 8 weeks. […] All behavior and survival tests were conducted by an experienced observer who was blinded to the treatment groups. Data are mean ± s.e.
Five-week old R6/2 HD mice and their wild-type littermates (a total of 60 mice) were implanted subcutaneously with a 28-d Alzet osmotic pump with either P259-TAT or TAT control peptide (15 mice per group) to be delivered continuously at a rate of 3 mg/Kg/day, as previously described. All mice were implanted twice for a total of an 8-week treatment. 20 of the WT mice were implanted 3 times for a total of a 12-week treatment at 3 mg/Kg/day. […]
To quantify mitochondrial motility, the images at time 0 and 150 seconds w ere overlaid. […]

Assay [5] relates to MFF knockout MEFs. The assay is described as follows: Mitochondrial ROS (MitoSox), MFF knockout MEFs. Conditions: 4 µM P259 daily for three days, vs no peptide; 3 independent experiments, three technical replicates; ns p = 0.23. Format: cell-based, mouse.
Excerpt: as §5
production in an Mff -dependent manner. Mitochondrial reactive oxygen species production […]
treatment in each cell line. […]
as §6
control (no peptide treatment). Data are mean ± s.e. from 3 independent experiments.
Mitochondrial reactive oxygen species determination […]
and 1% penicillin-streptomycin solution (Corning, NY, USA). […]
as §7, §8, §9, §4

Where no end group is shown, it is not given here.

Consider “YGRKKRRQRRRGSGIIQLPEIVVV-NH2 (C-terminus assumed) [P259]”, for which the “mitochondrial ROS levels” value in assay [1] is on record as “increase in mitochondrial reactive oxygen species (ROS) levels”. In assay [2], the “mitochondrial membrane potential, WT MEFs” value was “decreases”. For the same substance, the mitochondrial membrane potential result in assay [3] is on record as “mitochondrial depolarization”. In addition, the “decrease in ATP levels in the brain” value in assay [4] was found to be 30%. The “effect on mitochondrial ROS levels, Mff knockout MEFs” value in assay [5] is “insensitive”.
